According to publication PMC11047580, “Design and Synthesis of Novel Amino and Acetamidoaurones with Antimicrobial Activities” (Antibiotics, 2024):

Experiments:
C. albicans DSM10697 = test: MIC assay; format: cell-based, Candida albicans; settings: two-fold serial dilutions in liquid media, n = 2–3
E. coli ATCC8739 = test: MIC assay; format: cell-based, Escherichia coli; settings: two-fold serial dilutions in liquid media, n = 2–3
P. aeruginosa ATCC9027 = test: MIC assay; format: cell-based, Pseudomonas aeruginosa; settings: two-fold serial dilutions in liquid media, n = 2–3
B. subtilis ATCC6633 = test: MIC assay; format: cell-based, Bacillus subtilis; settings: two-fold serial dilutions in liquid media, n = 2–3
S. aureus ATCC6538P = test: MIC assay; format: cell-based, Staphylococcus aureus; settings: two-fold serial dilutions in liquid media, n = 2–3
M. smegmatis ATCC700084 = test: MIC assay (REMA); format: cell-based, Mycobacterium smegmatis; settings: n = 2–3
[1] = Pseudomonas aeruginosa, ATCC9027
[2] = Staphylococcus aureus, ATCC6538P
[3] = Mycolicibacterium smegmatis, ATCC700084, REMA microdilution

C[C@@H]1[C@H](O)[C@@H](C)/C=C/C=C/C=C/C=C/C=C/C=C/C=C/[C@H](O[C@@H]2O[C@H](C)[C@@H](O)[C@H](N)[C@@H]2O)C[C@@H]2O[C@](O)(C[C@@H](O)C[C@@H](O)[C@H](O)CC[C@@H](O)C[C@@H](O)CC(=O)O[C@H]1C)C[C@H](O)[C@H]2C(=O)O [Amphotericin B, reference compound]
0.62 µM: MIC (C. albicans DSM10697; Candida albicans, DSM10697)

COc1ccccc1C=C1Oc2ccc(NC(C)=O)cc2C1=O [Compound 4]
100 µM: MIC (S. aureus ATCC6538P)
50 µM: MIC (B. subtilis ATCC6633)
>100 µM: MIC (E. coli ATCC8739) | MIC (P. aeruginosa ATCC9027) | MIC (C. albicans DSM10697) | MIC (M. smegmatis ATCC700084; REMA microdilution)

COc1cccc(/C=C2\Oc3ccc(NC(C)=O)cc3C2=O)c1 [Compound 5, (Z)-N-(2-(3-methoxybenzylidene)-3-oxo-2,3-dihydrobenzofuran-5-yl)acetamide]
204.2 °C: melting point
> 100 µM: MIC (E. coli ATCC8739; Escherichia coli, ATCC8739) | MIC (P. aeruginosa ATCC9027; [1]) | MIC (B. subtilis ATCC6633; Bacillus subtilis, ATCC6633) | MIC (C. albicans DSM10697; Candida albicans, DSM10697)
100 µM: MIC (S. aureus ATCC6538P; [2]) | MIC (M. smegmatis ATCC700084; [3])

COc1ccc(/C=C2\Oc3ccc(NC(C)=O)cc3C2=O)cc1 [Compound 6, (Z)-N-(2-(4-methoxybenzylidene)-3-oxo-2,3-dihydrobenzofuran-5-yl)acetamide]
252 °C: melting point
> 100 µM: MIC (E. coli ATCC8739; Escherichia coli, ATCC8739) | MIC (P. aeruginosa ATCC9027; [1]) | MIC (B. subtilis ATCC6633; Bacillus subtilis, ATCC6633) | MIC (S. aureus ATCC6538P; [2]) | MIC (C. albicans DSM10697; Candida albicans, DSM10697) | MIC (M. smegmatis ATCC700084; [3])

COc1ccccc1/C=C1\Oc2ccc(N)cc2C1=O [Compound 7, (Z)-5-amino-2-(2-methoxybenzylidene)benzofuran-3(2H)-one]
189.3 °C: melting point
> 100 µM: MIC (E. coli ATCC8739; Escherichia coli, ATCC8739) | MIC (P. aeruginosa ATCC9027; [1]) | MIC (B. subtilis ATCC6633; Bacillus subtilis, ATCC6633) | MIC (S. aureus ATCC6538P; [2]) | MIC (C. albicans DSM10697; Candida albicans, DSM10697) | MIC (M. smegmatis ATCC700084; [3])

COc1cccc(/C=C2\Oc3ccc(N)cc3C2=O)c1 [Compound 8, (Z)-5-amino-2-(3-methoxybenzylidene)benzofuran-3(2H)-one]
> 100 µM: MIC (E. coli ATCC8739; Escherichia coli, ATCC8739) | MIC (P. aeruginosa ATCC9027; [1]) | MIC (B. subtilis ATCC6633; Bacillus subtilis, ATCC6633) | MIC (S. aureus ATCC6538P; [2]) | MIC (C. albicans DSM10697; Candida albicans, DSM10697) | MIC (M. smegmatis ATCC700084; [3])

COc1ccc(/C=C2\Oc3ccc(N)cc3C2=O)cc1 [Compound 9, (Z)-5-amino-2-(4-methoxybenzylidene)benzofuran-3(2H)-one]
> 100 µM: MIC (E. coli ATCC8739; Escherichia coli, ATCC8739) | MIC (P. aeruginosa ATCC9027; [1]) | MIC (B. subtilis ATCC6633; Bacillus subtilis, ATCC6633) | MIC (S. aureus ATCC6538P; [2]) | MIC (C. albicans DSM10697; Candida albicans, DSM10697) | MIC (M. smegmatis ATCC700084; [3])

CC(=O)Nc1ccc2c(c1)C(=O)/C(=C/c1ccc(OCc3ccccc3)cc1)O2 [Compound 11, (Z)-N-(2-(4-(benzyloxy)benzylidene)-3-oxo-2,3-dihydrobenzofuran-5-yl)acetamide]
> 100 µM: MIC (E. coli ATCC8739; Escherichia coli, ATCC8739) | MIC (P. aeruginosa ATCC9027; [1]) | MIC (B. subtilis ATCC6633; Bacillus subtilis, ATCC6633) | MIC (S. aureus ATCC6538P; [2]) | MIC (C. albicans DSM10697; Candida albicans, DSM10697) | MIC (M. smegmatis ATCC700084; [3])
212.8 °C: melting point

Nc1ccc2c(c1)C(=O)/C(=C/c1ccc(OCc3ccccc3)cc1)O2 [Compound 13, (Z)-5-amino-2-(4-(benzyloxy)benzylidene)benzofuran-3(2H)-one]
> 100 µM: MIC (E. coli ATCC8739; Escherichia coli, ATCC8739) | MIC (P. aeruginosa ATCC9027; [1]) | MIC (S. aureus ATCC6538P; [2]) | MIC (C. albicans DSM10697; Candida albicans, DSM10697) | MIC (M. smegmatis ATCC700084; [3])
100 µM: MIC (B. subtilis ATCC6633; Bacillus subtilis, ATCC6633)
141.6 °C: melting point

CC(=O)Nc1ccc2c(c1)C(=O)/C(=C/c1cccc(Oc3ccccc3)c1)O2 [Compound 14, (Z)-N-(3-oxo-2-(3-phenoxybenzylidene)-2,3-dihydrobenzofuran-5-yl)acetamide]
> 100 µM: MIC (E. coli ATCC8739; Escherichia coli, ATCC8739) | MIC (P. aeruginosa ATCC9027; [1]) | MIC (B. subtilis ATCC6633; Bacillus subtilis, ATCC6633) | MIC (S. aureus ATCC6538P; [2]) | MIC (C. albicans DSM10697; Candida albicans, DSM10697) | MIC (M. smegmatis ATCC700084; [3])
196.4 °C: melting point

Nc1ccc2c(c1)C(=O)/C(=C/c1ccc(Oc3ccccc3)cc1)O2 [Compound 17, (Z)-5-amino-2-(4-phenoxybenzylidene)benzofuran-3(2H)-one]
> 100 µM: MIC (E. coli ATCC8739; Escherichia coli, ATCC8739) | MIC (P. aeruginosa ATCC9027; [1]) | MIC (B. subtilis ATCC6633; Bacillus subtilis, ATCC6633) | MIC (S. aureus ATCC6538P; [2]) | MIC (C. albicans DSM10697; Candida albicans, DSM10697) | MIC (M. smegmatis ATCC700084; [3])
170.6 °C: melting point

CC(C)Oc1ccc(/C=C2\Oc3ccc(N)cc3C2=O)cc1 [Compound 23, (Z)-5-amino-2-(4-isopropoxybenzylidene)benzofuran-3(2H)-one]
> 350 °C: melting point
> 100 µM: MIC (E. coli ATCC8739; Escherichia coli, ATCC8739) | MIC (P. aeruginosa ATCC9027; [1]) | MIC (B. subtilis ATCC6633; Bacillus subtilis, ATCC6633) | MIC (S. aureus ATCC6538P; [2]) | MIC (C. albicans DSM10697; Candida albicans, DSM10697) | MIC (M. smegmatis ATCC700084; [3])

CC(=O)Nc1ccc2c(c1)C(=O)/C(=C/c1ccccc1F)O2 [Compound 24, (Z)-N-(2-(2-fluorobenzylidene)-3-oxo-2,3-dihydrobenzofuran-5-yl)acetamide]
226 °C: melting point
> 100 µM: MIC (E. coli ATCC8739; Escherichia coli, ATCC8739) | MIC (P. aeruginosa ATCC9027; [1]) | MIC (B. subtilis ATCC6633; Bacillus subtilis, ATCC6633) | MIC (S. aureus ATCC6538P; [2]) | MIC (C. albicans DSM10697; Candida albicans, DSM10697) | MIC (M. smegmatis ATCC700084; [3])

CC(=O)Nc1ccc2c(c1)C(=O)/C(=C/c1cccc(F)c1)O2 [Compound 25, (Z)-N-(2-(3-fluorobenzylidene)-3-oxo-2,3-dihydrobenzofuran-5-yl)acetamide]
100 µM: MIC (M. smegmatis ATCC700084; [3])
> 100 µM: MIC (E. coli ATCC8739; Escherichia coli, ATCC8739) | MIC (P. aeruginosa ATCC9027; [1]) | MIC (S. aureus ATCC6538P; [2]) | MIC (C. albicans DSM10697; Candida albicans, DSM10697)
50 µM: MIC (B. subtilis ATCC6633; Bacillus subtilis, ATCC6633)
243.6 °C: melting point

Nc1ccc2c(c1)C(=O)/C(=C/c1ccccc1F)O2 [Compound 26, (Z)-5-amino-2-(2-fluorobenzylidene)benzofuran-3(2H)-one]
> 100 µM: MIC (E. coli ATCC8739; Escherichia coli, ATCC8739) | MIC (P. aeruginosa ATCC9027; [1]) | MIC (S. aureus ATCC6538P; [2]) | MIC (C. albicans DSM10697; Candida albicans, DSM10697) | MIC (M. smegmatis ATCC700084; [3])
50 µM: MIC (B. subtilis ATCC6633; Bacillus subtilis, ATCC6633)

Nc1ccc2c(c1)C(=O)/C(=C/c1cccc(F)c1)O2 [Compound 27, (Z)-5-amino-2-(3-fluorobenzylidene)benzofuran-3(2H)-one]
> 100 µM: MIC (E. coli ATCC8739; Escherichia coli, ATCC8739) | MIC (P. aeruginosa ATCC9027; [1]) | MIC (B. subtilis ATCC6633; Bacillus subtilis, ATCC6633) | MIC (S. aureus ATCC6538P; [2]) | MIC (C. albicans DSM10697; Candida albicans, DSM10697) | MIC (M. smegmatis ATCC700084; [3])

Nc1ccc2c(c1)C(=O)/C(=C/c1ccc(F)cc1)O2 [Compound 28, (Z)-5-amino-2-(4-fluorobenzylidene)benzofuran-3(2H)-one]
164.4 °C: melting point
> 100 µM: MIC (E. coli ATCC8739; Escherichia coli, ATCC8739) | MIC (P. aeruginosa ATCC9027; [1]) | MIC (B. subtilis ATCC6633; Bacillus subtilis, ATCC6633) | MIC (S. aureus ATCC6538P; [2]) | MIC (C. albicans DSM10697; Candida albicans, DSM10697) | MIC (M. smegmatis ATCC700084; [3])

CC(=O)Nc1ccc2c(c1)C(=O)/C(=C/c1cccc(C(F)(F)F)c1)O2 [Compound 29, (Z)-N-(3-oxo-2-(3-(trifluoromethyl)benzylidene)-2,3-dihydrobenzofuran-5-yl)acetamide]
> 100 µM: MIC (E. coli ATCC8739; Escherichia coli, ATCC8739) | MIC (P. aeruginosa ATCC9027; [1]) | MIC (B. subtilis ATCC6633; Bacillus subtilis, ATCC6633) | MIC (S. aureus ATCC6538P; [2]) | MIC (C. albicans DSM10697; Candida albicans, DSM10697) | MIC (M. smegmatis ATCC700084; [3])
252.1 °C: melting point

Nc1ccc2c(c1)C(=O)/C(=C/c1cccc(C(F)(F)F)c1)O2 [Compound 30, (Z)-5-amino-2-(3-(trifluoromethyl)benzylidene)benzofuran-3(2H)-one]
> 350 °C: melting point
> 100 µM: MIC (E. coli ATCC8739; Escherichia coli, ATCC8739) | MIC (P. aeruginosa ATCC9027; [1]) | MIC (B. subtilis ATCC6633; Bacillus subtilis, ATCC6633) | MIC (S. aureus ATCC6538P; [2]) | MIC (C. albicans DSM10697; Candida albicans, DSM10697) | MIC (M. smegmatis ATCC700084; [3])

CC(=O)Nc1ccc2c(c1)C(=O)/C(=C/c1ccc(C(=O)O)cc1)O2 [Compound 31, (Z)-4-((5-acetamido-3-oxobenzofuran-2(3H)-ylidene)methyl)benzoic acid]
> 100 µM: MIC (E. coli ATCC8739; Escherichia coli, ATCC8739) | MIC (P. aeruginosa ATCC9027; [1]) | MIC (C. albicans DSM10697; Candida albicans, DSM10697)
50 µM: MIC (B. subtilis ATCC6633; Bacillus subtilis, ATCC6633)
100 µM: MIC (S. aureus ATCC6538P; [2]) | MIC (M. smegmatis ATCC700084; [3])

CC(=O)Nc1ccc2c(c1)C(=O)/C(=C/c1cccc(O)c1)O2 [Compound 32, (Z)-N-(2-(3-hydroxybenzylidene)-3-oxo-2,3-dihydrobenzofuran-5-yl)acetamide]
>100 µM: MIC (E. coli ATCC8739) | MIC (P. aeruginosa ATCC9027) | MIC (B. subtilis ATCC6633) | MIC (S. aureus ATCC6538P) | MIC (C. albicans DSM10697) | MIC (M. smegmatis ATCC700084; REMA microdilution)

Nc1ccc2c(c1)C(=O)/C(=C/c1cccc(O)c1)O2 [Compound 33, (Z)-5-amino-2-(3-hydroxybenzylidene)benzofuran-3(2H)-one]
>100 µM: MIC (E. coli ATCC8739) | MIC (P. aeruginosa ATCC9027) | MIC (B. subtilis ATCC6633) | MIC (S. aureus ATCC6538P) | MIC (C. albicans DSM10697) | MIC (M. smegmatis ATCC700084; REMA microdilution)

CO/N=C1\CN(c2nc3c(cc2F)c(=O)c(C(=O)O)cn3C2CC2)CC1CN (stereo not shown) [Gemifloxacin, reference compound]
0.03 µM: MIC (B. subtilis ATCC6633; Bacillus subtilis, ATCC6633)
0.25 µM: MIC (P. aeruginosa ATCC9027; [1])
0.06 µM: MIC (E. coli ATCC8739; Escherichia coli, ATCC8739) | MIC (S. aureus ATCC6538P; [2])
2 µM: MIC (M. smegmatis ATCC700084; [3])
